According to ChEMBL document CHEMBL1770066, “A green expedient synthesis of pyridopyrimidine-2-thiones and their antitubercular activity” (2011):
Values after ≈ are worked out from the molar mass of the structure shown.

Each compound was assayed on Mycobacterium tuberculosis (assay: Ratio of MIC for ciprofloxacin to compound for Mycobacterium tuberculosis H37Rv).
Format: functional

Row | Structure (SMILES) | Ratio
1 | S=C1NC2=C(CN(Cc3ccccc3)C/C2=C\c2ccc(Cl)cc2Cl)C(c2ccc(Cl)cc2Cl)N1 (stereo not given) | 1.7
2 | Fc1ccc(/C=C2\CN(Cc3ccccc3)CC3=C2NC(=S)NC3c2ccc(F)cc2)cc1 (stereo not given) | 1.4

These compounds were tested on Mycobacterium tuberculosis (assay: Antituberculosis activity against Mycobacterium tuberculosis H37Rv by agar dilution method).
Format: functional

Row | Structure (SMILES) | MIC
3 | CN1CC2=C(NC(=S)NC2c2ccc(N(C)C)cc2)/C(=C/c2ccc(N(C)C)cc2)C1 (stereo not given) | 57.7 µM (≈ 25 µg/mL)
4 | CN1CC2=C(NC(=S)NC2c2c(Cl)cccc2Cl)/C(=C/c2c(Cl)cccc2Cl)C1 (stereo not given) | 5.6 µM (≈ 2.72 µg/mL)
5 | S=C1NC2=C(CN(Cc3ccccc3)C/C2=C\c2ccccc2)C(c2ccccc2)N1 (stereo not given) | 59 µM (≈ 25 µg/mL)
6 | CN1CC2=C(NC(=S)NC2c2cccc(Br)c2)/C(=C/c2cccc(Br)c2)C1 (stereo not given) | 24.7 µM (≈ 12.5 µg/mL)
7 | COc1ccccc1/C=C1\CN(C)CC2=C1NC(=S)NC2c1ccccc1OC (stereo not given) | 61.4 µM (≈ 25 µg/mL)
8 | CN(C)c1ccc(/C=C2\CN(Cc3ccccc3)CC3=C2NC(=S)NC3c2ccc(N(C)C)cc2)cc1 (stereo not given) | 49.1 µM (≈ 25 µg/mL)
9 | CC[C@@H](CO)NCCN[C@@H](CC)CO [ETHAMBUTOL] | 7.6 µM (≈ 1.55 µg/mL)
10 | S=C1NC2=C(CN(Cc3ccccc3)C/C2=C\c2ccc(Cl)cc2Cl)C(c2ccc(Cl)cc2Cl)N1 (stereo not given) | 2.8 µM (≈ 1.57 µg/mL)
11 | CN1CC2=C(NC(=S)NC2c2cccc(F)c2)/C(=C/c2cccc(F)c2)C1 (stereo not given) | 16.3 µM (≈ 6.25 µg/mL)
12 | COc1cc(/C=C2\CN(Cc3ccccc3)CC3=C2NC(=S)NC3c2cc(OC)c(OC)c(OC)c2)cc(OC)c1OC (stereo not given) | 41.4 µM (≈ 25 µg/mL)
13 | CC(C)c1ccc(/C=C2\CN(C)CC3=C2NC(=S)NC3c2ccc(C(C)C)cc2)cc1 (stereo not given) | 57.9 µM (≈ 25 µg/mL)
14 | S=C1NC2=C(CN(Cc3ccccc3)C/C2=C\c2ccc(Cl)cc2)C(c2ccc(Cl)cc2)N1 (stereo not given) | 25.4 µM (≈ 12.5 µg/mL)
15 | CN1CC2=C(NC(=S)NC2c2cccc3ccccc23)/C(=C/c2cccc3ccccc23)C1 (stereo not given) | 55.9 µM (≈ 25 µg/mL)
16 | COc1ccc(/C=C2\CN(Cc3ccccc3)CC3=C2NC(=S)NC3c2ccc(OC)cc2)cc1 (stereo not given) | 51.7 µM (≈ 25 µg/mL)
17 | Cc1ccc(/C=C2\CN(Cc3ccccc3)CC3=C2NC(=S)NC3c2ccc(C)cc2)cc1 (stereo not given) | 55.4 µM (≈ 25 µg/mL)
18 | COc1ccc(/C=C2\CN(Cc3ccccc3)CC3=C2NC(=S)NC3c2ccc(OC)c(OC)c2)cc1OC (stereo not given) | 46 µM (≈ 25 µg/mL)
19 | CN1CC2=C(N=C(S)NC2c2ccccc2)/C(=C/c2ccccc2)C1 (stereo not given) | 71.9 µM (≈ 25 µg/mL)
20 | COc1ccc(OC)c(/C=C2\CN(C)CC3=C2NC(=S)NC3c2cc(OC)ccc2OC)c1 (stereo not given) | 53.5 µM (≈ 25 µg/mL)
21 | S=C1NC2=C(CN(Cc3ccccc3)C/C2=C\c2ccccc2Cl)C(c2ccccc2Cl)N1 (stereo not given) | 25.4 µM (≈ 12.5 µg/mL)
22 | CN1CC2=C(N=C(S)NC2c2cccs2)/C(=C/c2cccs2)C1 (stereo not given) | 69.5 µM (≈ 25 µg/mL)

Row | Structure (SMILES) | MIC
23 | CN1CC2=C(NC(=S)NC2c2ccc(Br)cc2)/C(=C/c2ccc(Br)cc2)C1 (stereo not given) | 24.7 µM (≈ 12.5 µg/mL)
24 | CN1CC2=C(N=C(S)NC2c2ccc(Cl)cc2)/C(=C/c2ccc(Cl)cc2)C1 (stereo not given) | 30 µM (≈ 12.5 µg/mL)
25 | S=C1NC2=C(CN(Cc3ccccc3)C/C2=C\c2cccc3ccccc23)C(c2cccc3ccccc23)N1 (stereo not given) | 47.7 µM (≈ 25 µg/mL)
26 | S=C1NC2=C(CN(Cc3ccccc3)C/C2=C\c2ccccc2Br)C(c2ccccc2Br)N1 (stereo not given) | 21.5 µM (≈ 12.5 µg/mL)
27 | Cc1ccccc1/C=C1\CN(C)CC2=C1NC(=S)NC2c1ccccc1C (stereo not given) | 66.6 µM (≈ 25 µg/mL)
28 | CO[C@H]1/C=C/O[C@@]2(C)Oc3c(C)c(O)c4c(O)c(c(/C=N/N5CCN(C)CC5)c(O)c4c3C2=O)NC(=O)/C(C)=C\C=C\[C@H](C)[C@H](O)[C@@H](C)[C@@H](O)[C@@H](C)[C@H](OC(C)=O)[C@@H]1C [RIFAMPIN] | 0.1 µM (≈ 0.0823 µg/mL)
29 | Cc1ccc(/C=C2\CN(C)CC3=C2N=C(S)NC3c2ccc(C)cc2)cc1 (stereo not given) | 66.6 µM (≈ 25 µg/mL)
30 | COc1ccc(/C=C2\CN(C)CC3=C2NC(=S)NC3c2ccc(OC)c(OC)c2)cc1OC (stereo not given) | 53.5 µM (≈ 25 µg/mL)
31 | Fc1cccc(/C=C2\CN(Cc3ccccc3)CC3=C2NC(=S)NC3c2cccc(F)c2)c1 (stereo not given) | 6.8 µM (≈ 3.13 µg/mL)
32 | CN1CC2=C(NC(=S)NC2c2ccc3ccccc3c2)/C(=C/c2ccc3ccccc3c2)C1 (stereo not given) | 55.9 µM (≈ 25 µg/mL)
33 | Cc1ccccc1/C=C1\CN(Cc2ccccc2)CC2=C1NC(=S)NC2c1ccccc1C (stereo not given) | 55.4 µM (≈ 25 µg/mL)
34 | Fc1ccc(/C=C2\CN(Cc3ccccc3)CC3=C2NC(=S)NC3c2ccc(F)cc2)cc1 (stereo not given) | 3.4 µM (≈ 1.56 µg/mL)
35 | NNC(=O)c1ccncc1 [ISONIAZID] | 0.4 µM (≈ 0.0549 µg/mL)
36 | CN1CC2=C(NC(=S)NC2c2ccc(Cl)cc2Cl)/C(=C/c2ccc(Cl)cc2Cl)C1 (stereo not given) | 12.9 µM (≈ 6.26 µg/mL)
37 | COc1ccc(/C=C2\CN(C)CC3=C2N=C(S)NC3c2ccc(OC)cc2)cc1 (stereo not given) | 61.4 µM (≈ 25 µg/mL)
38 | COc1ccc(OC)c(/C=C2\CN(Cc3ccccc3)CC3=C2NC(=S)NC3c2cc(OC)ccc2OC)c1 (stereo not given) | 46 µM (≈ 25 µg/mL)
39 | CN1CC2=C(N=C(S)NC2c2ccccc2Cl)/C(=C/c2ccccc2Cl)C1 (stereo not given) | 30 µM (≈ 12.5 µg/mL)
40 | CC(C)c1ccc(/C=C2\CN(Cc3ccccc3)CC3=C2NC(=S)NC3c2ccc(C(C)C)cc2)cc1 (stereo not given) | 24.6 µM (≈ 12.5 µg/mL)
41 | CN1CC2=C(NC(=S)NC2c2ccc(F)cc2)/C(=C/c2ccc(F)cc2)C1 (stereo not given) | 32.6 µM (≈ 12.5 µg/mL)

What follows are compounds tested on Mycobacterium tuberculosis (assay: Ratio of MIC for ethambutol to compound for Mycobacterium tuberculosis H37Rv).
Format: functional

Row | Structure (SMILES) | Ratio
42 | CN1CC2=C(NC(=S)NC2c2c(Cl)cccc2Cl)/C(=C/c2c(Cl)cccc2Cl)C1 (stereo not given) | 1.4
43 | S=C1NC2=C(CN(Cc3ccccc3)C/C2=C\c2ccc(Cl)cc2Cl)C(c2ccc(Cl)cc2Cl)N1 (stereo not given) | 2.7
44 | Fc1cccc(/C=C2\CN(Cc3ccccc3)CC3=C2NC(=S)NC3c2cccc(F)c2)c1 (stereo not given) | 1.1
45 | Fc1ccc(/C=C2\CN(Cc3ccccc3)CC3=C2NC(=S)NC3c2ccc(F)cc2)cc1 (stereo not given) | 2.2
